Assay results reported in patent US20110172147A1, “NEUROPEPTIDE-2 RECEPTOR (Y-2R) AGONISTS” (priority 2009, published 2011).
pEC50: −log10 of the molar value. *1 amine or outer side, *2 acyl side, *3 side chain or, on linkers, in order; H or OH if unused. Where a SMILES comes first, the peptide text is derived from it. [ ]: non-standard residue; d: D form. The star is where a group is joined. CH3O(CH2CH2O)11CH2CH2CO = COCCOCCOCCOCCOCCOCCOCCOCCOCCOCCOCCOCCC(=O)*; X1 = O=C(Cn1cnc2ccc(N3CCN([*:1])CC3)cc2c1=O)[*:2]; Arachidoyl = CCCCCCCCCCCCCCCCCCCC(=O)*

Assays:
Type in all cases: cell-based
hNPY2R [1] = molecular target: T1, hNPY2R (Homo sapiens, UniProt P49146); test: cAMP Agonist Assay, HEK293/hNPY2R; parameters: expressed in transfected cells; host or cells: HEK293/hNPY2R (G418 selection)
T1 sequence (P49146 1-381): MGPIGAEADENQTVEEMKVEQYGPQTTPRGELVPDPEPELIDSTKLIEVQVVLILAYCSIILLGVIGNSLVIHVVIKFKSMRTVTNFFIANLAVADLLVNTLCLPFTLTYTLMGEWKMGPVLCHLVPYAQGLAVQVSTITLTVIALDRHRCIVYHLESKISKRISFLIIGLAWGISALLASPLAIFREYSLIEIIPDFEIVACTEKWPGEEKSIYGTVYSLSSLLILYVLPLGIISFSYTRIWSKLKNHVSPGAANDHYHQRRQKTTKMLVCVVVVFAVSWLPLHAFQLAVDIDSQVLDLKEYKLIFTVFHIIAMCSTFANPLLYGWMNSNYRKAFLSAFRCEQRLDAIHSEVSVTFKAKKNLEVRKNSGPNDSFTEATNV
Summary of the method: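 Intracellular cAMP quantified by luminescent competitive ELISA after a 30 min room-temperature treatment of overnight-plated HEK293/hNPY2R cells with compound in medium containing 5 μM forskolin, 0.5 mM IBMX and 1.1% DMSO; four replicates per concentration.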

Y1R = molecular target: T2, Y1R (Homo sapiens, UniProt P25929); test: CaFlux Assay (FLIPR), Y1R
T2 sequence (P25929 1-384): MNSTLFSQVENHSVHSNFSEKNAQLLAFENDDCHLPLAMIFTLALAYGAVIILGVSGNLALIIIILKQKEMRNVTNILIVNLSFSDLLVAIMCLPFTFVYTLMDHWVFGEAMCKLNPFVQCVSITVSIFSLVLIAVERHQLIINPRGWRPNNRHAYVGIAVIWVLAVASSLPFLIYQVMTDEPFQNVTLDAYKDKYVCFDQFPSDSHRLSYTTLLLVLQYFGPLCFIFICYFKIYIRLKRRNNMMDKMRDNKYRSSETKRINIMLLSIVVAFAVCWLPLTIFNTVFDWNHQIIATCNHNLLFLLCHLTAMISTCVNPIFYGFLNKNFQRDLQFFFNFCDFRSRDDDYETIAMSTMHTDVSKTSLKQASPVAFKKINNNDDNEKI

hNPY2R [2] = molecular target: T1, hNPY2R; test: CaFlux Assay (FLIPR), Y2R; parameters: expressed in transfected cells; host or cells: HEK-293 stably transfected with G protein chimera Gαqi9
Summary of the method: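 HEK-293 cells stably expressing Gαqi9 and the human receptor, dye-loaded 1 h at 37° C, then compound added on FLIPR. Fluorescence read every 1.5 s for 100 s; peak increase over pre-stimulation baseline, expressed as % of positive-control maximal response.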

Y4R = Y4R (Homo sapiens, UniProt P50391); test: CaFlux Assay (FLIPR), Y4R
Y4R, sequence (P50391 whole entry): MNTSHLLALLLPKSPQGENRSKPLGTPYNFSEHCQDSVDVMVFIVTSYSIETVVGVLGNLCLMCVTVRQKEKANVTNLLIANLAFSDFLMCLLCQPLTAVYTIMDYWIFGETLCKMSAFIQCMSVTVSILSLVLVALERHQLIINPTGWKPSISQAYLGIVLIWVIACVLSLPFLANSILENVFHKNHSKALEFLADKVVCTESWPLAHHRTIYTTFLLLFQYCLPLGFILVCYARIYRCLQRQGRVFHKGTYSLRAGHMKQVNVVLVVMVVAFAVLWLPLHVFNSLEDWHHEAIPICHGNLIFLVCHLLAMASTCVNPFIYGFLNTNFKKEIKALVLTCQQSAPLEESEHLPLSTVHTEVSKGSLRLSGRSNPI

Y5R = molecular target: T3, Y5R (Homo sapiens, UniProt Q15761); test: CaFlux Assay (FLIPR), Y5R
T3 sequence (Q15761 1-445): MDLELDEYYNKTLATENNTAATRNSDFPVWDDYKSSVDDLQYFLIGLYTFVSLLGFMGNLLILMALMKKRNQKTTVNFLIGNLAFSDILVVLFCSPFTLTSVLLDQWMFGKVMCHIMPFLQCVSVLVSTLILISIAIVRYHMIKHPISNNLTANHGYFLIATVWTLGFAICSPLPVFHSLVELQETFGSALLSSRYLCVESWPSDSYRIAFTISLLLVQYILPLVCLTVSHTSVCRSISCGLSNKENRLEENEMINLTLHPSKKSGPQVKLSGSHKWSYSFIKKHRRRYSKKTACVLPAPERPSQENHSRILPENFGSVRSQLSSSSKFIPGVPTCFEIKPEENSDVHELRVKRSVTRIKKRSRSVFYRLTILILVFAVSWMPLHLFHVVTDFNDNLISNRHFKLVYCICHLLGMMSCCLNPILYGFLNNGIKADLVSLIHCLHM

SMILES	pEC50 (hNPY2R [1])	pEC50 (Y1R)	pEC50 (hNPY2R [2])	pEC50 (Y4R)	pEC50 (Y5R)
CCCCCCCCCCCCCCCCCCCC(=O)N[C@@H](CCC(=O)O)C(=O)N[C@@H](CCC(=O)O)C(=O)N[C@H](C(=O)N[C@@H](CCCCNC(=O)CCOCCOCCOCCOCCOCCOCCOCCOCCOCCOCCOCCOCCOCCOCCOCCOCCOCCOCCOCCOCCOCCOCCOCCOC)C(=O)N1CCN(c2ccc3ncn(CC(=O)N[C@@H](CCCNC(=N)N)C(=O)N[C@@H](Cc4c[nH]cn4)C(=O)N[C@@H](Cc4ccc(O)cc4)C(=O)N[C@@H](CC(C)C)C(=O)N[C@@H](CC(N)=O)C(=O)N[C@@H](Cc4c[nH]c5ccccc45)C(=O)N[C@H](C(=O)N[C@H](C(=O)N[C@@H](CCCNC(=N)N)C(=O)N[C@@H](CCC(N)=O)C(=O)N(C)[C@@H](CCCNC(=N)N)C(=O)N[C@@H](Cc4ccc(O)cc4)C(N)=O)[C@@H](C)O)C(C)C)c(=O)c3c2)CC1)[C@@H](C)CC [Example 52]	9.70	< 5.05	9.83	< 5.05	5.37
CCCCCCCCCCCCCCCCCCCC(=O)N[C@@H](CCC(=O)O)C(=O)N[C@@H](CCC(=O)O)C(=O)N[C@@H](C(=O)N[C@@H](CCCCNC(=O)CCOCCOCCOCCOCCOCCOCCOCCOCCOCCOCCOCCOCCOCCOCCOCCOCCOCCOCCOCCOCCOCCOCCOCCOC)C(=O)N1CCN(c2ccc3ncn(CC(=O)N[C@@H](CCCNC(=N)N)C(=O)N[C@@H](Cc4c[nH]cn4)C(=O)N[C@@H](Cc4ccc(O)cc4)C(=O)N[C@@H](CC(C)C)C(=O)N[C@@H](CC(N)=O)C(=O)N[C@@H](Cc4c[nH]c5ccccc45)C(=O)N[C@H](C(=O)N[C@H](C(=O)N[C@@H](CCCNC(=N)N)C(=O)N[C@@H](CCC(N)=O)C(=O)N(C)[C@@H](CCCNC(=N)N)C(=O)N[C@@H](Cc4ccc(O)cc4)C(N)=O)[C@@H](C)O)C(C)C)c(=O)c3c2)CC1)[C@@H](C)CC [Example 53]	9.25	< 5.22	9.18	< 5.22	< 5.22
CCCCCCCCCCCCCCCCCCCC(=O)N[C@@H](CCC(=O)O)C(=O)N[C@@H](CCC(=O)O)C(=O)N[C@H](C(=O)N[C@@H](CCCCNC(=O)CCOCCOCCOCCOCCOCCOCCOCCOCCOCCOCCOCCOC)C(=O)N1CCN(c2ccc3ncn(CC(=O)N[C@@H](CCCNC(=N)N)C(=O)N[C@@H](Cc4c[nH]cn4)C(=O)N[C@@H](Cc4ccc(O)cc4)C(=O)N[C@@H](Cc4c[nH]cn4)C(=O)N[C@@H](CC(N)=O)C(=O)N[C@@H](Cc4c[nH]c5ccccc45)C(=O)N[C@H](C(=O)N[C@H](C(=O)N[C@@H](CCCNC(=N)N)C(=O)N[C@@H](CCC(N)=O)C(=O)N[C@@H](CCCNC(=N)N)C(=O)N[C@@H](Cc4ccc(O)cc4)C(N)=O)[C@@H](C)O)C(C)C)c(=O)c3c2)CC1)[C@@H](C)CC [Example 55] (Arachidoyl-EEIK(CH3O(CH2CH2O)11CH2CH2CO)[X1]RHYHNWVTRQRY-NH2)	10.85	< 5.22	10.57	< 5.22	8.06
CCCCCCCCCCCCCCCCCCCC(=O)N[C@@H](CCC(=O)O)C(=O)N[C@@H](CCC(=O)O)C(=O)N[C@H](C(=O)N[C@@H](CCCCNC(=O)CCOCCOCCOCCOCCOCCOCCOCCOCCOCCOCCOCCOCCOCCOCCOCCOC)C(=O)N1CCN(c2ccc3ncn(CC(=O)N[C@@H](CCCNC(=N)N)C(=O)N[C@@H](Cc4c[nH]cn4)C(=O)N[C@@H](Cc4ccc(O)cc4)C(=O)N[C@@H](Cc4c[nH]cn4)C(=O)N[C@@H](CC(N)=O)C(=O)N[C@@H](Cc4c[nH]c5ccccc45)C(=O)N[C@H](C(=O)N[C@H](C(=O)N[C@@H](CCCNC(=N)N)C(=O)N[C@@H](CCC(N)=O)C(=O)N[C@@H](CCCNC(=N)N)C(=O)N[C@@H](Cc4ccc(O)cc4)C(N)=O)[C@@H](C)O)C(C)C)c(=O)c3c2)CC1)[C@@H](C)CC [Example 56]	10.89	< 5.22	10.01	< 5.22	8.06
